Consider 32 compounds from patent publication US6855710B2, “Substituted indolines with an inhibitory effect on various kinases and complexes of CDKs” (Boehringer Ingelheim Pharma KG, priority 1998, dated 2005).

`CN(C(=O)CN1C(=O)c2ccccc2C1=O)c1ccc(N/C(=C2\C(=O)Nc3ccccc32)c2ccccc2)cc1` [Example 365, (Z)-3-{1-[4-(N-phthalimidomethylcarbonyl-N-methyl-amino)-phenylamino]-1-phenyl-methylidene}-2-indolinone] showed a melting point of 278 to 280 °C.

For `CN(C(=O)CN)c1ccc(N/C(=C2\C(=O)Nc3ccccc32)c2ccccc2)cc1` [Example 366, (Z)-3-{1-[4-(N-aminomethylcarbonyl-N-methyl-amino)-phenylamino]-1-phenyl-methylidene}-2-indolinone], the melting point was in the range of 238 to 239 °C.

On to `CC(=O)NCC(=O)N(C)c1ccc(N/C(=C2\C(=O)Nc3ccccc32)c2ccccc2)cc1` [Example 367, (Z)-3-{1-[4-(N-acetylaminomethylcarbonyl-N-methyl-amino)-phenylamino]-1-phenyl-methylidene}-2-indolinone], for which the melting point fell in the range of 255 to 256 °C.

On to `CC(=O)NCC(=O)Nc1ccc(N/C(=C2\C(=O)Nc3ccccc32)c2ccccc2)cc1` [Example 368, (Z)-3-{1-[4-(acetylaminomethylcarbonylamino)-phenylamino]-1-phenyl-methylidene}-2-indolinone], for which the melting point fell in the range of 245 to 247 °C.

The compound `CN(C(=O)CN1CCCC1)c1ccc(N/C(=C2\C(=O)Nc3ccccc32)c2ccccc2)cc1` [Example 369, (Z)-3-{1-[4-(N-(pyrrolidin-1-ylmethylcarbonyl)-N-methyl-amino)-phenylamino]-1-phenyl-methylidene}-2-indolinone] gave a melting point of 253 to 255 °C.

As for `CN(CC(=O)N(C)c1ccc(N/C(=C2\C(=O)Nc3ccccc32)c2ccccc2)cc1)Cc1ccccc1` [Example 370, (Z)-3-{1-[4-(N—(N-benzyl-N-methyl-aminomethylcarbonyl)-N-methyl-amino)-phenylamino]-1-phenyl-methylidene}-2-indolinone], the melting point fell in the range of 195 to 197 °C.

With `COCCNCC(=O)N(C)c1ccc(N/C(=C2\C(=O)Nc3ccccc32)c2ccccc2)cc1` [Example 371, (Z)-3-{1-[4-(N-(2-methoxyethylaminomethylcarbonyl)-N-methyl-amino)-phenylamino]-1-phenyl-methylidene}-2-indolinone], the melting point lay in the range of 186 to 188 °C.

As to `COCCN(C)CC(=O)N(C)c1ccc(N/C(=C2\C(=O)Nc3ccccc32)c2ccccc2)cc1` [Example 372, (Z)-3-{1-[4-(N—(N-(2-methoxyethyl)-N-methyl-aminomethylcarbonyl)-N-methyl-amino)-phenylamino]-1-phenyl-methylidene}-2-indolinone], the melting point was 197 to 199 °C.

On to `CN(C(=O)CNCCN1CCOCC1)c1ccc(N/C(=C2\C(=O)Nc3ccccc32)c2ccccc2)cc1` [Example 373, (Z)-3-{1-[4-(N-(2-morpholinoethylaminomethylcarbonyl)-N-methyl-amino)-phenylamino]-1-phenyl-methylidene}-2-indolinone], for which the melting point was 117 to 119 °C.

The compound `CN(CCN1CCOCC1)CC(=O)N(C)c1ccc(N/C(=C2\C(=O)Nc3ccccc32)c2ccccc2)cc1` [Example 374, (Z)-3-{1-[4-(N—(N-(2-morpholinoethyl)-N-methyl-aminomethyl-carbonyl)-N-methylamino)-phenylamino]-1-phenyl-methylidene}-2-indolinone] yielded a melting point of 116 to 118 °C.

In turn, `CN(C)CCN(C)CC(=O)N(C)c1ccc(N/C(=C2\C(=O)Nc3ccccc32)c2ccccc2)cc1` [Example 375, (Z)-3-{1-[4-(N—(N-(2-dimethylaminoethyl)-N-methyl-aminomethylcarbonyl)-N-methylamino)-phenylamino]-1-phenyl-methylidene}-2-indolinone] returned a melting point of 167 to 169 °C.

Take `CN(C(=O)CCNC(=O)OC(C)(C)C)c1ccc(N/C(=C2\C(=O)Nc3ccccc32)c2ccccc2)cc1` [Example 376, (Z)-3-{1-[4-(N-(2-tert.butoxycarbonylamino-ethylcarbonyl)-N-methyl-amino)-phenylamino]-1-phenyl-methylidene}-2-indolinone]: the melting point lay within 246 to 248 °C.

On to `CC(=O)NCCC(=O)N(C)c1ccc(N/C(=C2\C(=O)Nc3ccccc32)c2ccccc2)cc1` [Example 378, (Z)-3-{1-[4-(N-(2-acetylamino-ethylcarbonyl)-N-methyl-amino)-phenylamino]-1-phenyl-methylidene}-2-indolinone], for which the melting point lay in the range of 187 to 189 °C.

Take `CN(C)CCS(=O)(=O)Nc1ccc(N/C(=C2\C(=O)Nc3ccccc32)c2ccccc2)cc1` [Example 379, (Z)-3-{1-[4-(2-dimethylamino-ethylsulphonylamino)-phenylamino]-1-phenyl-methylidene}-2-indolinone]: the melting point lay in the range of 214 to 216 °C.

Consider `O=C1Nc2ccccc2/C1=C(/Nc1ccc(NS(=O)(=O)CCN2CCCCC2)cc1)c1ccccc1` [Example 380, (Z)-3-{1-[4-(2-piperidinoethylsulphonylamino)-phenylamino]-1-phenyl-methylidene}-2-indolinone], for which the melting point is 225 to 227 °C.

Turning to `O=C1Nc2ccccc2/C1=C(/Nc1ccc(NS(=O)(=O)CCN2CCOCC2)cc1)c1ccccc1` [Example 381, (Z)-3-{1-[4-(2-morpholinoethylsulphonylamino)-phenylamino]-1-phenyl-methylidene}-2-indolinone], the melting point was in the range of 240 to 242 °C.

As to `CN(C)CCS(=O)(=O)N(C)c1ccc(N/C(=C2\C(=O)Nc3ccccc32)c2ccccc2)cc1` [Example 382, (Z)-3-{1-[4-(N-(2-dimethylamino-ethylsulphonyl)-N-methyl-amino)-phenylamino]-1-phenyl-methylidene}-2-indolinone], the melting point was in the range of 165 to 168 °C.

In turn, `CN(c1ccc(N/C(=C2\C(=O)Nc3ccccc32)c2ccccc2)cc1)S(=O)(=O)CCN1CCCCC1` [Example 383, (Z)-3-{1-[4-(N-(2-piperidinoethylsulphonyl)-N-methyl-amino)-phenylamino]-1-phenyl-methylidene}-2-indolinone] had a melting point of 121 to 123 °C.

`CN(c1ccc(N/C(=C2\C(=O)Nc3ccccc32)c2ccccc2)cc1)S(=O)(=O)CCN1CCOCC1` [Example 384, (Z)-3-{1-[4-(N-(2-morpholinoethylsulphonyl)-N-methyl-amino)-phenylamino]-1-phenyl-methylidene}-2-indolinone] returned a melting point of 115 to 117 °C.

`O=C1Nc2ccccc2/C1=C(/Nc1ccc(C(=O)N2CCCC2)cc1)c1ccccc1` [Example 386, (Z)-3-{1-[4-(pyrrolidin-1-ylcarbonyl)-phenylamino]-1-phenyl-methylidene}-2-indolinone] displayed a melting point of 127 to 129 °C.

`O=C1Nc2ccccc2/C1=C(/Nc1ccc(C(=O)N2CCCCC2)cc1)c1ccccc1` [Example 387, (Z)-3-{1-[4-(piperidinocarbonyl)-phenylamino]-1-phenyl-methylidene}-2-indolinone]: the melting point was 212 to 214 °C.

On to `COCCNC(=O)c1ccc(N/C(=C2\C(=O)Nc3ccccc32)c2ccccc2)cc1` [Example 388, (Z)-3-{1-[4-(2-methoxyethylaminocarbonyl)-phenylamino]-1-phenyl-methylidene}-2-indolinone], for which the melting point is 277 to 279 °C.

Compound `COCCN(C)C(=O)c1ccc(N/C(=C2\C(=O)Nc3ccccc32)c2ccccc2)cc1` [Example 389, (Z)-3-{1-[4-(N-(2-methoxyethyl)-N-methyl-aminocarbonyl)-phenylamino]-1-phenyl-methylidene}-2-indolinone] registered a melting point of 198 to 200 °C.

`CN(C)CCNC(=O)c1ccc(N/C(=C2\C(=O)Nc3ccccc32)c2ccccc2)cc1` [Example 390, (Z)-3-{1-[4-(2-dimethylamino-ethylaminocarbonyl)-phenylamino]-1-phenyl-methylidene}-2-indolinone] had a melting point of 145 to 147 °C.

For `CN(C)CCN(C)C(=O)c1ccc(N/C(=C2\C(=O)Nc3ccccc32)c2ccccc2)cc1` [Example 391, (Z)-3-{1-[4-(N-(2-dimethylaminoethyl)-N-methyl-aminocarbonyl)-phenylamino]-1-phenyl-methylidene}-2-indolinone], the melting point was 181 to 183 °C.

For the compound `CCOC(=O)CNC(=O)c1ccc(N/C(=C2\C(=O)Nc3ccccc32)c2ccccc2)cc1` [Example 392, (Z)-3-{1-[4-(ethoxycarbonylmethylaminocarbonyl)-phenylamino]-1-phenyl-methylidene}-2-indolinone], the melting point was in the range of 235 to 237 °C.

`O=C(O)CNC(=O)c1ccc(N/C(=C2\C(=O)Nc3ccccc32)c2ccccc2)cc1` [Example 393, (Z)-3-{1-[4-(carboxymethylaminocarbonyl)-phenylamino]-1-phenyl-methylidene}-2-indolinone] gave a melting point of 245 to 247 °C.

As to `CCOC(=O)CN(C)C(=O)c1ccc(N/C(=C2\C(=O)Nc3ccccc32)c2ccccc2)cc1` [Example 394, (Z)-3-{1-[4-(N-ethoxycarbonylmethyl-N-methyl-aminocarbonyl)-phenylamino]-1-phenyl-methylidene}-2-indolinone], the melting point is 95 to 98 °C.

`CN(CC(=O)O)C(=O)c1ccc(N/C(=C2\C(=O)Nc3ccccc32)c2ccccc2)cc1` [Example 395, (Z)-3-{1-[4-(N-carboxymethyl-N-methyl-aminocarbonyl)-phenylamino]-1-phenyl-methylidene}-2-indolinone] showed a melting point of 168 to 170 °C.

Compound `NS(=O)(=O)c1ccc(N/C(=C2\C(=O)Nc3ccccc32)c2ccccc2)cc1` [Example 396, (Z)-3-{1-[4-(aminosulphonyl)-phenylamino]-1-phenyl-methylidene}-2-indolinone] had a melting point of 254 °C.

Consider `O=C1Nc2ccccc2/C1=C(/Nc1ccc(S(=O)(=O)N2CCCC2)cc1)c1ccccc1` [Example 397, (Z)-3-{1-[4-(pyrrolidin-1-ylsulphonyl)-phenylamino]-1-phenyl-methylidene}-2-indolinone], for which the melting point was in the range of 293 to 294 °C.

`CCN(CC)S(=O)(=O)c1ccc(N/C(=C2\C(=O)Nc3ccccc32)c2ccccc2)cc1` [Example 398, (Z)-3-{1-[4-(diethylaminosulphonyl)-phenylamino]-1-phenyl-methylidene}-2-indolinone] had a melting point of 252 to 254 °C.
